Data reported in patent US8633184B2, “Benzoazepin-oxy-acetic acid derivatives as PPAR-delta agonists used for the increase of HDL-C, lower LDL-C and lower cholesterol” (Janssen Pharmaceutica N.V., priority 2006, dated 2014).
Values joined by “and” are separate entries in the source; they are usually repeats but may differ in a detail not shown here. Identical values can stand only once. Like-named read-outs stand apart in the source and are kept apart here.

What was measured:
[1] = Rat study: drug plasma levels (pharmacokinetics); assay type: in vivo
Excerpt: (§1) Rats carry the majority of serum cholesterol in the HDL lipoprotein fraction while humans carry the majority of serum cholesterol in LDL and VLDL lipoproteins. To mimic a human hypercholesterolemic state in a rodent model, Sprague Dawley rats were fed a diet high in cholesterol (Research Diets, C13002) for 6 days before treatment with the compounds for another 8 days while remaining on the diet. Under this dietary regimen, the vehicle controls (HC: High Cholesterol) typically have serum total cholesterol and LDL-C levels that are increased by 3-8 fold and serum HDL-C is decreased by approximately 30-50% compared with chow diet (lean) controls.
(§2) Compound 7 had no effect on serum triglycerides or liver weights.

PPARγ = target: T1, PPARγ (Homo sapiens, UniProt P37231); test: Transfection assay, GAL4-PPARγ LBD luciferase reporter in HEK293 cells; assay type: cell-based; conditions: 18-24 hrs
T1 construct: expressed in transfected cells; host or cells: HEK293
T1 sequence (P37231 238-503 limits assumed): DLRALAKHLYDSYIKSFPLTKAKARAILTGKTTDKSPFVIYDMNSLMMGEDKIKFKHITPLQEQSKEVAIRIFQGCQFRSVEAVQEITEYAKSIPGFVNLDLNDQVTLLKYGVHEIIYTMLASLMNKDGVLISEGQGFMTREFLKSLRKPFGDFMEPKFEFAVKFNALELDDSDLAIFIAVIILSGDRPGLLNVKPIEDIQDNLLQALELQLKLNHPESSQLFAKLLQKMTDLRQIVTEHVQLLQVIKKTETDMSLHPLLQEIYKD
Method: (§3) HEK293 cells were grown in DMEM/F12 medium supplemented with 10% FBS and glutamine (Invitrogen) and incubated in a 5% CO2 incubator at 37° C. The cells were co-transfected using DMRIE-C reagent (Invitrogen) in serum free medium (Opti-MEM, Invitrogen) with two mammalian expression plasmids, one containing the DNA sequence coding for the ligand binding domains of either PPARα, γ or δ fused to the yeast GAL4 DNA binding domain and the other containing the promoter sequence of the yeast GAL4 (UAS) fused to the firefly luciferase cDNA reporter. The next day, the medium was changed to DMEM/F12 medium supplemented with 5% charcoal treated serum (Hyclone) and glutamine. After 6 hrs the cells were trypsinized and seeded at a density of 50,000 cells/well into 96 well plates and incubated overnight as above. The cells were then treated with test compounds or vehicle and incubated for 18-24 hrs as above. Luciferase reporter activity was measured using the Steady-Glo Luciferase Assay Kit from Promega. DMRIE-C Reagent was purchased from GIBCO Cat. No. 10459-014. OPTI-MEM I Reduced Serum Medium was purchased from GIBCO (Cat. No. 31985). Steady-Glo Luciferase Assay Kit was purchased from Promega (Part #E254B).
(§4) A variety of example compounds have been made and tested, with a range of in vitro results. Below, in Table 2, are representative compounds and data; in some cases, where multiple EC50's are shown, multiple measurements were taken. Naturally, different compounds in Formula (I) may have not activities identical to any one compound below.

[2] = system: Sprague Dawley rats fed a diet high in cholesterol; test: Rat study: high cholesterol diet, serum lipids and liver weights after 8 days treatment; assay type: in vivo; conditions: for HDL-C / LDL-C / Total Cholesterol / Triglycerides / Liver Weights: 8 days
Excerpt: as §1, §2

[3] = Rat study: drug plasma levels (pharmacokinetics); assay type: in vivo; conditions: for Cmax / half-life / AUC(0-t): Sprague Dawley, plasma
PPARδ = target: T2, PPARδ (Homo sapiens, UniProt Q03181); test: Transfection assay, GAL4-PPARδ LBD luciferase reporter in HEK293 cells; assay type: cell-based; conditions: 18-24 hrs
T2 construct: expressed in transfected cells; host or cells: HEK293
T2 sequence (Q03181 211-439 limits assumed): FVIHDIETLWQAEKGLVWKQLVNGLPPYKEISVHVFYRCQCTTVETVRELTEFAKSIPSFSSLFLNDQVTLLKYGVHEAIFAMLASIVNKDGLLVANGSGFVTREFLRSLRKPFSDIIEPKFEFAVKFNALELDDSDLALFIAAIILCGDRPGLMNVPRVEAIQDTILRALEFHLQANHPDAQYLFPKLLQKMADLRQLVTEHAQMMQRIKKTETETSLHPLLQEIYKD
Method: as §3, §4

PPARα = target: T3, PPARα (Homo sapiens, UniProt Q07869); test: Transfection assay, GAL4-PPARα LBD luciferase reporter in HEK293 cells; assay type: cell-based; conditions: 18-24 hrs
T3 construct: expressed in transfected cells; host or cells: HEK293
T3 sequence (Q07869 239-466 limits assumed): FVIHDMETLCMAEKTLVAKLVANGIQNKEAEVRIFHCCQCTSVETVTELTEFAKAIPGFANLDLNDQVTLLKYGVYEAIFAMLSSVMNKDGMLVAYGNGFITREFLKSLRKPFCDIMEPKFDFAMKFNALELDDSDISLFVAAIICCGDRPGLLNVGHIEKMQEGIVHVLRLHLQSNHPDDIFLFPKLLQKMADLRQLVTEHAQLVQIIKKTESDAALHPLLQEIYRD
Method: as §3, §4

drug plasma levels (Cmax and AUC), in words [1]: dose-related increases
Tmax ([1]; Dose 0.1, Multiple, n = 2): 2.5 h
Tmax ([1]; Dose 0.3, Multiple): 3 h
Tmax ([1]; Dose 1, Multiple, n = 2): 4 h
Tmax ([1]; Dose 3, Single, n = 2): 5.5 h
AUC(0-t) ([1]; Sprague Dawley, plasma, 0.1 mg/kg, Dose 0.1, Multiple, n = 2, read-out: AUC0-24): 772 ng·h/mL
half-life ([1]; Sprague Dawley, plasma, 0.3 mg/kg, Dose 0.3, Multiple, read-out: t½): ~22 h
AUC(0-t) ([1]; Sprague Dawley, plasma, 3 mg/kg, Dose 3, Multiple, read-out: AUC0-24): 37100 ng·h/mL
EC50 (PPARγ): > 3000 nM
Liver Weights ([2]; 0.3 mg/kg): 25.0 ± 0.8
Liver Weights ([2]; 1 mg/kg): 23.9 ± 0.5
Liver Weights ([2]; 3 mg/kg): 27.2 ± 0.9
liver weights (effect in words) ([2]; 8 days treatment): no effect
Tmax ([3]; Dose 3, Multiple): 5 h
Cmax ([3]; 0.1 mg/kg, Dose 0.1, Multiple, n = 2): 57 ng/mL
half-life ([3]; 0.1 mg/kg, Dose 0.1, Multiple, n = 2, read-out: t½): ~13 h
Cmax ([3]; 0.3 mg/kg, Dose 0.3, Multiple): 124 ng/mL
AUC(0-t) ([3]; 0.3 mg/kg, Dose 0.3, Multiple, read-out: AUC0-24): 1640 ng·h/mL
Cmax ([3]; 1 mg/kg, Dose 1, Multiple, n = 2): 595 ng/mL
AUC(0-t) ([3]; 1 mg/kg, Dose 1, Multiple, n = 2, read-out: AUC0-24): 10900 ng·h/mL
Cmax ([3]; 3 mg/kg, Dose 3, Multiple): 2030 ng/mL
half-life ([3]; 3 mg/kg, Dose 3, Multiple, read-out: t½): ~36 h
Cmax ([3]; 3 mg/kg, Dose 3, Single, n = 2): 733 ng/mL
AUC(0-t) ([3]; 3 mg/kg, Dose 3, Single, n = 2, read-out: AUC0-24): 14200 ng·h/mL
half-life ([3]; 3 mg/kg, Dose 3, Single, n = 2, read-out: t½): ~29 h
EC50 (PPARδ): 14.5 nM and 18.9 nM
EC50 (PPARα): > 3000 nM
Compound: O=C(O)COc1ccc2c(c1)CCN(Cc1ccc(-c3ccc(C(F)(F)F)cc3)s1)CC2 [compound 7]
HDL-C ([2]; 0.1 mg/kg): 24.2 ± 2.9 mg/dL
LDL-C ([2]; 0.1 mg/kg): 32.7 ± 4.7 mg/dL
Total Cholesterol ([2]; 0.1 mg/kg): 239.0 ± 22.4 mg/dL
Triglycerides ([2]; 0.1 mg/kg): 269.8 ± 27.8 mg/dL
HDL-C ([2]; 0.3 mg/kg): 29.6 ± 1.4 mg/dL
LDL-C ([2]; 0.3 mg/kg): 31.2 ± 1.5 mg/dL
Total Cholesterol ([2]; 0.3 mg/kg): 233.2 ± 9.5 mg/dL
Triglycerides ([2]; 0.3 mg/kg): 264.7 ± 29.8 mg/dL
HDL-C ([2]; 1 mg/kg): 31.8 ± 0.9 mg/dL
LDL-C ([2]; 1 mg/kg): 24.4 ± 1.3 mg/dL
Total Cholesterol ([2]; 1 mg/kg): 173.3 ± 7.9 mg/dL
Triglycerides ([2]; 1 mg/kg): 237.7 ± 25.4 mg/dL
HDL-C ([2]; 3 mg/kg): 39.6 ± 1.6 mg/dL
LDL-C ([2]; 3 mg/kg): 20.6 ± 1.5 mg/dL
Total Cholesterol ([2]; 3 mg/kg): 152.2 ± 8.5 mg/dL
Triglycerides ([2]; 3 mg/kg): 299.5 ± 35.9 mg/dL
LDL-C levels (effect in words) ([2]; 8 days treatment): significant decreases
serum total cholesterol levels (effect in words) ([2]; 8 days treatment): significant decreases
serum triglycerides (effect in words) ([2]; 8 days treatment): no effect
HDL-C levels (effect in words) ([2]; 8 days treatment, achieving the levels of the chow fed controls): significantly increased
